# According to patent US20110257210A1, “BENZIMIDAZOLE DERIVATIVES AND THEIR USE FOR MODULATING THE GABAA RECEPTOR COMPLEX” (NEUROSEARCH A/S, priority 2008, published 2011):
# Target: benzodiazepine binding site on GABAA receptors (rat cerebral cortex membranes)
# Assay: In vitro inhibition of 3H-flunitrazepam (3H-FNM) binding
# Settings: inhibition of specific binding of 3H-FNM (1 nM), cerebral cortex membranes from male Wistar rats, 40 min at 2° C.
# Experimental: In Vitro Inhibition of ^3H-flunitrazepam (^3H-FNM) Binding
# […] the benzodiazepine modulatory unit can selectively be labelled with ^3H-flunitrazepam.
# Preparations are performed at 0-4° C. unless otherwise indicated. Cerebral cortex from male Wistar rats (150-200 g) is homogenised for 5-10 sec in 20 ml Tris-HCl (30 mM, pH 7.4) using an Ultra-Turrax homogeniser. The suspension is centrifuged at 27,000×g for 15 min and the pellet is washed three times with buffer (centrifuged at 27,000×g for 10 min). The washed pellet is homogenized in 20 ml of buffer and incubated on a water bath (37° C.) for 30 min to remove endogenous GABA and then centrifuged for 10 min at 27,000×g. The pellet is then homogenized in buffer and centrifuged for 10 min at 27,000×g. The final pellet is resuspended in 30 ml buffer and the preparation is frozen and stored at −20° C.
# The membrane preparation is thawed and centrifuged at 2° C. for 10 min at 27,000×g. The pellet is washed twice with 20 ml 50 mM Tris-citrate, pH 7.1 using an Ultra-Turrax homogeniser and centrifuged for 10 min at 27,000×g. The final pellet is resuspended in 50 mM Tris-citrate, pH 7.1 (500 ml buffer per g of original tissue), and then used for binding assays. Aliquots of 0.5 ml tissue are added to 25 μl of test solution and 25 μl of ^3H-FNM (1 nM, final concentration), mixed and incubated for 40 min at 2° C. Non-specific binding is determined using Clonazepam (1 μM, final concentration). After incubation the samples are added 5 ml of ice-cold buffer and poured directly onto Whatman GF/C glass fibre filters under suction and immediately washed with 5 ml ice-cold buffer. The amount of radioactivity on the filters is determined by conventional liquid scintillation counting. Specific binding is total binding minus non-specific binding.
# 25-75% inhibition of specific binding must be obtained, before calculation of an IC50.
# The test value will be given as IC50 (the concentration (μM) of the test substance which inhibits the specific binding of ^3H-FNM by 50%).
# Co is specific binding in control assays, and
# CX is the specific binding in the test assay.
# (The calculations assume normal mass-action kinetics).
row,Structure (SMILES),IC50 [nM]
1,"CC(C)(O)c1ccc2c(c1)ncn2-c1ccc(F)c(-c2ccncc2Cl)c1 [Compound 7c, 2-{1-[3-(3-Chloro-pyridin-4-yl)-4-fluoro-phenyl]-1H-benzoimidazol-5-yl}-propan-2-ol]",0.64
2,"CC(C)(O)c1ccc2c(c1)ncn2-c1ccc(F)c(-c2cccnc2F)c1 [Compound 7a, 2-{1-[4-Fluoro-3-(2-fluoro-pyridin-3-yl)-phenyl]-1H-benzoimidazol-5-yl}-propan-2-ol]",1.6
3,"CC(C)(O)c1ccc2c(c1)ncn2-c1ccc(F)c(-c2ccncc2F)c1 [Compound 7e, 2-{1-[4-Fluoro-3-(3-fluoro-pyridin-4-yl)-phenyl]-1H-benzoimidazol-5-yl}-propan-2-ol]",1.1
4,"COc1ncc(-c2cc(-n3cnc4cc(C(C)(C)O)ccc43)ccc2F)c(OC)n1 [Compound 7h, 2-{1-[3-(2,4-Dimethoxy-pyrimidin-5-yl)-4-fluoro-phenyl]-1H-benzoimidazol-5-yl}-propan-2-ol]",0.77
5,"CC(C)(O)c1ccc2c(c1)ncn2-c1ccc(F)c(-c2ccnc(Cl)c2F)c1 [Compound 7f, 2-{1-[3-(2-Chloro-3-fluoro-pyridin-4-yl)-4-fluoro-phenyl]-1H-benzoimidazol-5-yl}-propan-2-ol]",2.5

# Further compounds by falling IC50, results first:
row,IC50 [nM],Structure (SMILES)
1,99,"CC(C)(O)c1ccc2c(c1)ncn2-c1ccc(F)c(-c2cncc(C#N)c2)c1 [Compound 7g, 5-{2-Fluoro-5-[5-(1-hydroxy-1-methyl-ethyl)-benzoimidazol-1-yl-]-phenyl}-nicotinonitrile]"
2,1.9,"CC(C)(O)c1ccc2c(c1)ncn2-c1ccc(F)c(-c2cccnc2Cl)c1 [Compound 7b, 2-{1-[3-(2-Chloro-pyridin-3-yl)-4-fluoro-phenyl]-1H-benzoimidazol-5-yl}-propan-2-ol]"
3,1.1,"CC(C)(O)c1ccc2c(c1)ncn2-c1ccc(F)c(-c2ccncc2C#N)c1 [Compound 7i, 4-{2-Fluoro-5-[5-(1-hydroxy-1-methyl-ethyl)-benzoimidazol-1-yl]-phenyl}-nicotinonitrile]"
4,0.29,"COc1ncccc1-c1cc(-n2cnc3cc(C(C)(C)O)ccc32)ccc1F [Compound 7d, 2-{1-[4-Fluoro-3-(2-methoxy-pyridin-3-yl)-phenyl]-1H-benzoimidazol-5-yl}-propan-2-ol]"
